Laboratory results taken from the CheMixHub ionic liquid set.

Experiment: xn = mol fraction of the nth substance listed
Conditions: 101.3 kPa

CCCC[N+](C)(CCCC)CCCC.[Cl-] + OC[C@H]1O[C@@](CO)(O[C@H]2O[C@H](CO)[C@@H](O)[C@H](O)[C@H]2O)[C@@H](O)[C@@H]1O + O
viscosity [mPa·s]
Conditions | 293.15 K | 298.15 K | 303.15 K | 308.15 K | 313.15 K
x2 = 0, x1 = 0.0003423 | 1.011 | 0.904 | 0.806 | 0.729 | 0.662
x2 = 0, x1 = 0.0007203 | – | – | – | – | 0.672
x2 = 0, x1 = 0.001062 | 1.036 | 0.931 | 0.826 | 0.747 | 0.686
x2 = 0, x1 = 0.00144 | – | – | – | – | 0.695
x2 = 0.0003599, x1 = 0.0003421 | 1.027 | 0.917 | 0.817 | 0.737 | 0.668
x2 = 0.0003616, x1 = 0.00072 | 1.041 | 0.928 | 0.824 | 0.746 | 0.68
x2 = 0.0003631, x1 = 0.001062 | 1.057 | 0.948 | 0.839 | 0.758 | 0.695
x2 = 0.0003647, x1 = 0.001439 | 1.069 | 0.962 | 0.857 | 0.773 | 0.706
x2 = 0.0007214, x1 = 0.000342 | 1.052 | 0.937 | 0.83 | 0.747 | 0.677
x2 = 0.0007247, x1 = 0.0007198 | 1.069 | 0.948 | 0.839 | 0.759 | 0.692
x2 = 0.0007277, x1 = 0.001061 | 1.084 | 0.968 | 0.855 | 0.773 | 0.709
x2 = 0.000731, x1 = 0.001438 | 1.096 | 0.984 | 0.871 | 0.786 | 0.718
x2 = 0.001083, x1 = 0.0003419 | 1.071 | 0.952 | 0.845 | 0.761 | 0.689
x2 = 0.001088, x1 = 0.0007195 | 1.088 | 0.965 | 0.854 | 0.772 | 0.701
x2 = 0.001092, x1 = 0.001061 | 1.105 | 0.994 | 0.872 | 0.785 | 0.718
x2 = 0.001097, x1 = 0.001438 | 1.118 | 1.007 | 0.89 | 0.8 | 0.729
x2 = 0.001444, x1 = 0.0003418 | 1.093 | 0.971 | 0.86 | 0.774 | 0.701
x2 = 0.00145, x1 = 0.0007192 | 1.11 | 0.984 | 0.87 | 0.786 | 0.712
x2 = 0.001456, x1 = 0.001061 | 1.126 | 1.009 | 0.889 | 0.799 | 0.73
x2 = 0.001463, x1 = 0.001437 | 1.141 | 1.025 | 0.908 | 0.816 | 0.741
x2 = 0.001804, x1 = 0.0003416 | 1.115 | 0.987 | 0.875 | 0.788 | 0.713
x2 = 0.001813, x1 = 0.000719 | 1.134 | 1.001 | 0.885 | 0.798 | 0.726
x2 = 0.00182, x1 = 0.00106 | 1.153 | 1.025 | 0.905 | 0.814 | 0.744
x2 = 0.001828, x1 = 0.001437 | 1.166 | 1.042 | 0.925 | 0.829 | 0.76
x2 = 0.002163, x1 = 0.0003415 | 1.137 | 1.006 | 0.89 | 0.802 | 0.725
x2 = 0.002173, x1 = 0.0007187 | 1.155 | 1.02 | 0.901 | 0.811 | 0.734
x2 = 0.002176, x1 = 0.00106 | 1.171 | 1.044 | 0.922 | 0.828 | 0.754
x2 = 0.002192, x1 = 0.001436 | 1.182 | 1.059 | 0.941 | 0.841 | 0.762
x2 = 0.002532, x1 = 0.0003414 | 1.153 | 1.027 | 0.904 | 0.806 | 0.734
x2 = 0.002546, x1 = 0.0007185 | 1.176 | 1.038 | 0.916 | 0.822 | 0.754
x2 = 0.00256, x1 = 0.001436 | 1.203 | 1.075 | 0.957 | 0.859 | 0.775
x2 = 0.002561, x1 = 0.001059 | 1.187 | 1.058 | 0.934 | 0.842 | 0.766
